This is an account of results in publication PMC3071021 (Bioorganic & medicinal chemistry letters, 2011).

The subject of assay [1] is Jurkat cells. Nature of the assay: Standard MTT assay, Jurkat cells. The assay is classed as cell-based. To be noted: listed as CD4.M3. For orientation: Formazan colour is commonly taken as a measure of viable cells.
For assay [2], the system named is T6-17 (HER2/neu expressing cells). The assay can be described thus: Standard MTT assay, T6-17 cells. Conditions: listed as CD4.M3. The assay is classed as cell-based.

In the case of “[Cys^3-Cys^12]-HAbuFCYIGEVEDQCY-OH (disulfide) [CD4, reference compound]”, the “% inhibition of cell growth” value in assay [1] and in assay [2] was “unaffected” each time.
